Columns and labels:
human HIPK1 = target: T1, human HIPK1 (Homo sapiens, UniProt Q86Z02); assay: HIPK1 enzyme assay (ADP-Glo); assay type: biochemical; conditions: ADP-Glo, ATP 5 μM; read-out: HIPK1 IC50
T1 construct: Recombinant human HIPK1 (156-555); GST (N); purchased SignalChem H03-11G; host or cells: Sf9 insect cells
Outline: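 Recombinant GST-tagged HIPK1 (156-555, Sf9), 4 nM, preincubated 30 min at 25° C with compound in Tris pH 7.5/MgCl2/BSA/DTT, then reacted 90 min with 0.05 mg/ml MBP and 5 μM ATP. ADP formed read by ADP-Glo luminescence; IC50 from four-parameter logistic fit of % inhibition versus Max/Min controls.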

[1] = tested on: Neonatal Rat Ventricular Myocytes (NRVMs); assay: Myocyte proliferation assay (EdU assay) in neonatal rat ventricular myocytes; assay type: cell-based; conditions: growth relative to blank myocyte growth without compound added; for Avg 1 uM (average myocyte proliferation): compound 1 uM; for Avg 3 uM (average myocyte proliferation): compound 3 uM; for Avg 10 uM (average myocyte proliferation): compound 10 uM
Outline: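 Neonatal rat ventricular myocytes, fibroblast-depleted by preplating, serum-starved 24 h (2% FBS/ITS), then given compound at 10, 3 or 1 uM in 6% FBS medium for 36 h before 12 h EdU labelling. Fixed cells stained for EdU (Click-iT), ab8295 primary antibody and DAPI; quantified by high-content confocal imaging.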

T1 sequence (Q86Z02 156-555): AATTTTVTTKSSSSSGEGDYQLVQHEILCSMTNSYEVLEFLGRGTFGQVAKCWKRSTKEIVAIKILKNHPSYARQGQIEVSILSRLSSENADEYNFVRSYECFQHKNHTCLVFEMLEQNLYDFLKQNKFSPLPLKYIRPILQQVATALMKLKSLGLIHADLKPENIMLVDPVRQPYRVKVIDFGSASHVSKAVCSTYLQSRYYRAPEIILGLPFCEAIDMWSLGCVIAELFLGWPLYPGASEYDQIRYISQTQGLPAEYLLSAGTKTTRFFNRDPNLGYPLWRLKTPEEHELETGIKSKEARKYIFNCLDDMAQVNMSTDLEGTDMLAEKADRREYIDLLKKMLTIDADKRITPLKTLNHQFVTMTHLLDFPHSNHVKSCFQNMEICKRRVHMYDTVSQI

Structure (SMILES)	IC50 (human HIPK1)	Avg 1 uM (average myocyte proliferation) [1]	Avg 3 uM (average myocyte proliferation) [1]	Avg 10 uM (average myocyte proliferation) [1]
O=C1NC(Nc2ccccc2)=N/C1=C\c1ccc2cn[nH]c2c1 [Example 54, (Z)-5-((1H-indazol-6-yl)methylene)-2-(phenylamino)-3,5-dihydro-4H-imidazol-4-one]	> 10 µM	* (<10% growth relative to blank myocyte growth without compound added.)	* (<10% growth relative to blank myocyte growth without compound added.)	–
O=C1/C(=C/c2ccc3c(c2)OCO3)N=C(N(Cc2ccccc2)c2ccccc2)N1Cc1ccccc1 [Example 2, (Z)-5-(benzo[d][1,3]dioxol-5-ylmethylene)-3-benzyl-2-(benzyl(phenyl)amino)-3,5-dihydro-4H-imidazol-4-one]	> 10 µM	* (<10% growth relative to blank myocyte growth without compound added.)	* (<10% growth relative to blank myocyte growth without compound added.)	*** (>50%)
O=C1NC(Nc2ccc3nccnc3c2)=N/C1=C\c1ccc2ncsc2c1 [Example 82, (Z)-5-(benzo[d]thiazol-6-ylmethylene)-2-(quinoxalin-6-ylamino)-3,5-dihydro-4H-imidazol-4-one]	> 10 µM	** (10%-50%)	** (10%-50%)	–
CN(C1=N/C(=C\c2ccc3c(c2)OCO3)C(=O)N1)c1ccc2ncsc2c1 [Example 70, (Z)-5-(benzo[d][1,3]dioxol-5-ylmethylene)-2-(benzo[d]thiazol-6-yl(methyl)amino)-3,5-dihydro-4H-imidazol-4-one]	> 10 µM	** (10%-50%)	** (10%-50%)	–
O=C1NC(Nc2ccc3c(c2)OCCO3)=N/C1=C\c1ccc2ncsc2c1 [Example 81, (Z)-5-(benzo[d]thiazol-6-ylmethylene)-2-((2,3-dihydrobenzo[b][1,4]dioxin-6-yl)amino)-3,5-dihydro-4H-imidazol-4-one]	0.1 to 1 µM	* (<10% growth relative to blank myocyte growth without compound added.)	* (<10% growth relative to blank myocyte growth without compound added.)	–
CN(C1=N/C(=C\c2ccc3c(c2)OCCO3)C(=O)N1)c1ccccc1 [Example 8, (Z)-5-((2,3-dihydrobenzo[b][1,4]dioxin-6-yl)methylene)-2-(methyl(phenyl)amino)-3,5-dihydro-4H-imidazol-4-one]	> 10 µM	** (10%-50%)	* (<10% growth relative to blank myocyte growth without compound added.)	** (10%-50%)
COc1ccccc1N(C)C1=N/C(=C\c2ccc3c(c2)OCO3)C(=O)N1 [Example 21, (Z)-5-(benzo[d][1,3]dioxol-5-ylmethylene)-2-((2-methoxyphenyl)(methyl)amino)-3,5-dihydro-4H-imidazol-4-one]	> 10 µM	*** (>50%)	*** (>50%)	** (10%-50%)
O=C1NC(Nc2ccccc2)=N/C1=C\c1ccc2occc2c1 [Example 52, (Z)-5-(benzofuran-5-ylmethylene)-2-(phenylamino)-3,5-dihydro-4H-imidazol-4-one]	> 10 µM	** (10%-50%)	** (10%-50%)	** (10%-50%)
O=C1NC(N(CC2CC2)c2ccc3ncsc3c2)=N/C1=C\c1ccc2ncsc2c1 [Example 105, (Z)-2-(benzo[d]thiazol-6-yl(cyclopropylmethyl)amino)-5-(benzo[d]thiazol-6-ylmethylene)-3,5-dihydro-4H-imidazol-4-one]	> 10 µM	** (10%-50%)	** (10%-50%)	–
O=C1NC(Nc2ccccc2)=N/C1=C\c1ccc2scnc2c1 [Example 14, (Z)-5-(benzo[d]thiazol-5-ylmethylene)-2-(phenylamino)-3,5-dihydro-4H-imidazol-4-one]	> 10 µM	* (<10% growth relative to blank myocyte growth without compound added.)	** (10%-50%)	–
O=C1NC(Nc2ccccc2)=N/C1=C\c1ccc2[nH]cnc2c1 [Example 26, (Z)-5-((1H-benzo[d]imidazol-5-yl)methylene)-2-(phenylamino)-3,5-dihydro-4H-imidazol-4-one]	0.1 to 1 µM	* (<10% growth relative to blank myocyte growth without compound added.)	* (<10% growth relative to blank myocyte growth without compound added.)	* (<10% growth relative to blank myocyte growth without compound added.)
NC(=O)CCN(C1=N/C(=C\c2ccc3c(c2)OCO3)C(=O)N1)c1ccccc1 [Example 36, (Z)-3-((4-(benzo[d][1,3]dioxol-5-ylmethylene)-5-oxo-4,5-dihydro-1H-imidazol-2-yl)(phenyl)amino)propanamide]	> 10 µM	* (<10% growth relative to blank myocyte growth without compound added.)	** (10%-50%)	–
Cn1cnc2ccc(/C=C3\N=C(Nc4ccc5ncsc5c4)NC3=O)cc21 [Example 75, (Z)-2-(benzo[d]thiazol-6-ylamino)-5-((1-methyl-1H-benzo[d]imidazol-6-yl)methylene)-3,5-dihydro-4H-imidazol-4-one]	< 0.1 µM	** (10%-50%)	** (10%-50%)	–
O=C1NC(Nc2ccccc2)=N/C1=C\c1cncs1 [Example 15, (Z)-2-(phenylamino)-5-(thiazol-5-ylmethylene)-3,5-dihydro-4H-imidazol-4-one]	> 10 µM	* (<10% growth relative to blank myocyte growth without compound added.)	** (10%-50%)	–
CN(CCN1CCOCC1)C1=N/C(=C\c2ccc3c(c2)OCO3)C(=O)N1 [Example 20, (Z)-5-(benzo[d][1,3]dioxol-5-ylmethylene)-2-(methyl(2-morpholinoethyl)amino)-3,5-dihydro-4H-imidazol-4-one]	> 10 µM	* (<10% growth relative to blank myocyte growth without compound added.)	* (<10% growth relative to blank myocyte growth without compound added.)	** (10%-50%)
CN(C1=N/C(=C\c2ccc3ncsc3c2)C(=O)N1)c1ccccc1 [Example 7, (Z)-5-(benzo[d]thiazol-6-ylmethylene)-2-(methyl(phenyl)amino)-3,5-dihydro-4H-imidazol-4-one]	1 to 10 µM	* (<10% growth relative to blank myocyte growth without compound added.)	** (10%-50%)	* (<10% growth relative to blank myocyte growth without compound added.)
CN(C1=N/C(=C\c2ccc3[nH]cnc3c2)C(=O)N1)c1ccccc1 [Example 30, (Z)-5-((1H-benzo[d]imidazol-5-yl)methylene)-2-(methyl(phenyl)amino)-3,5-dihydro-4H-imidazol-4-one]	> 10 µM	* (<10% growth relative to blank myocyte growth without compound added.)	* (<10% growth relative to blank myocyte growth without compound added.)	–
O=C1NC(NCC2CC2)=N/C1=C\c1ccc2ncsc2c1 [Example 34, (Z)-5-(benzo[d]thiazol-6-ylmethylene)-2-((cyclopropylmethyl)amino)-3,5-dihydro-4H-imidazol-4-one]	1 to 10 µM	** (10%-50%)	*** (>50%)	–
Cn1ncc2cc(/C=C3\N=C(Nc4ccccc4)NC3=O)ccc21 [Example 77, (Z)-5-((1-methyl-1H-indazol-5-yl)methylene)-2-(phenylamino)-3,5-dihydro-4H-imidazol-4-one]	> 10 µM	* (<10% growth relative to blank myocyte growth without compound added.)	* (<10% growth relative to blank myocyte growth without compound added.)	–
O=C1NC(Nc2ccc3ncsc3c2)=NC1Cc1ccc2ncsc2c1 (stereo not shown) [Example 102, 2-(benzo[d]thiazol-6-ylamino)-5-(benzo[d]thiazol-6-ylmethyl)-3,5-dihydro-4H-imidazol-4-one]	0.1 to 1 µM	* (<10% growth relative to blank myocyte growth without compound added.)	** (10%-50%)	–
O=C1NC(Nc2ccc3ncsc3c2)=N/C1=C\c1ccc2occc2c1 [Example 59, (Z)-2-(benzo[d]thiazol-6-ylamino)-5-(benzofuran-5-ylmethylene)-3,5-dihydro-4H-imidazol-4-one]	> 10 µM	* (<10% growth relative to blank myocyte growth without compound added.)	* (<10% growth relative to blank myocyte growth without compound added.)	–

Reference: patent publication US12643887B2, “Heterocyclic derivatives with cardiomyocyte proliferation activity for treatment of heart diseases” (Tongji University, priority 2019, dated 2026)
